Earlier results, collected in patent US20060153842A1, “Immunosuppressive combination and its use in the treatment or prophylaxis or insulin-producing cell graft rejection” (priority 2001, published 2006).

Tested on: islet allograft in male rats
Conditions: male rats hyperglycemic with streptozotocin; pre-administration the day before and the day of grafting

In the case of `CCCCCCCCc1ccc(CCC(N)(CO)CO)cc1` [FTY720, 2-amino-2-[2-(4-octylphenyl)ethyl]propane-1,3-diol], the “prolonged islet allograft survival” value is given as “up to 20 days”.
